Experimental data as given in EPA's ToxValDB 9.5 (doi:10.2903/j.efsa.2009.1341).
Values after ≈ are worked out from the molar mass of the structure shown.

What was measured:
Rattus norvegicus = conditions: for LD50: acute
Apis mellifera = conditions: acute; duration: 48 hours; inhalation; unspecified; mortality
Mus musculus = conditions: chronic; duration: 2 years; inhalation; histopathology: nonneoplastic
Cyprinodon variegatus = conditions: acute; duration: 96 hours; mortality
Pimephales promelas = conditions: chronic/long-term; duration: 33 days; growth
Daphnia magna = conditions: chronic/long-term; duration: 21 days; mortality
Canidae = conditions: short-term; duration: 2 weeks; Dog Other

Question: With `ClC=CCCl` [1,3-Dichloropropene] as the molecule, how does the LD50 (Rattus norvegicus; inhalation, mortality) read?
Answer: 2.7 mg/L

Question: What about the LD50 (Rattus norvegicus; oral, mortality) of the same molecule?
Answer: 130 mg/kg

Question: What about the NOAEL (Rattus norvegicus; chronic, duration: 2 years, oral, diet, histopathology: neoplastic) of the same molecule?
Answer: 2.5 mg/kg-day

Question: What about the NOAEL (Rattus norvegicus; chronic, oral, mortality) of the same molecule?
Answer: 2.5 mg/kg-day

Question: And the NOAEL (Rattus norvegicus; reproduction developmental, inhalation, reproduction)?
Answer: < 0.0908 mg/L

Question: What about the NOAEL (Rattus norvegicus; subchronic, duration: 13 weeks, inhalation, histopathology: nonneoplastic) of the same molecule?
Answer: 9.72 mg/kg-day

Question: And the NOAEL (Rattus norvegicus; subchronic, duration: 90 days, oral, mortality)?
Answer: 5 mg/kg-day

Question: And the NOEC (Apis mellifera)?
Answer: 115 mg/m3

Question: And the NOAEL (Mus musculus)?
Answer: 1.1 mg/kg-day

Question: And the LC50 (Cyprinodon variegatus)?
Answer: 0.87 µg/mL (≈ 7.84 µM)

Question: What about the NOEC (Pimephales promelas) of the same molecule?
Answer: 0.032 mg/L

Question: What about the NOEC (Daphnia magna) of the same molecule?
Answer: 0.0701 mg/L

Question: And the NOAEL (Canidae)?
Answer: 20 mg/kg-day

Question: And the LC50 (Tagia sp.; acute, duration: 14 days, mortality)?
Answer: 55.6 mg/kg

Question: And the NOEC (Tagia sp.; chronic/long-term, duration: 56 days, reproduction)?
Answer: 770 mg/kg
